The text below walks through data of patent publication US20230270755A1, “COMBINATION OF MEDICATIONS IN A PARENTERAL DOSAGE FORM FOR LONG-TERM ANAESTHESIA” (PHARMAFINA ILAC SATIS VE PAZARLAMA ANONIM SIRKETI, priority 2020, published 2023).

A short description of data set [1]: Ropivacaine pharmacokinetics and duration of effect (literature review). Type of data set: in vivo. Conditions: single dose; additional doses required for longer action. As for the experimental part: Ropivacaine is preferably used as the hydrochloride salt and S-enantiomer thereof for acute pain management and surgical anesthesia. […] Therefore, ropivacaine loses its sensible effect within about 4 hours and additional doses are required for a longer action.

The conditions of data set [2]: administered intravenously, cited from earlier work.

Structures are written as SMILES.

For the molecule `CCCN1CCCC[C@H]1C(=O)Nc1c(C)cccc1C` [Ropivacaine], the “time within which sensible effect is lost” value in data set [1] is at most 4 h. The “mean half-life of the initial phase” value in data set [2] is 14 min. Also, the “mean absorption t1/2 of the slower phase” value in data set [2] (slower phase) was “approximately 4.2 hours”.
